Laboratory results taken from PMC8318231, “Rate-of-Kill (RoK) assays to triage large compound sets for Chagas disease drug discovery: Application to GSK Chagas Box” (PLoS Neglected Tropical Diseases, 2021).

What was measured:
[1] = tested on: T. cruzi intracellular amastigotes in H9c2 cells; experiment: Rate-of-Kill (RoK) high-content imaging assay, amastigotes per cell (AM/CELL) and curve descriptors; format: cell-based, Trypanosoma cruzi; set-up: key to ME_24h / ME_48h / ME_72h: % reduction in parasite burden (cidal response); t50pct_MCC50 / t50pct_Cmax: unit not given here; conditions: for ME_24h: 24h; for ME_48h: 48h; for ME_72h: 72h; for tlag_Cmax / t50pct_Cmax / t50%_Cmax: at Cmax; for ME_24h (%): maximum effect at 24 h; for ME_24h (%) / ME_48h (%) / ME_72h (%): RoK assay; for ME_48h (%): maximum effect at 48 h; for ME_72h (%): maximum effect at 72 h; for ME 24h (maximum effect at 24 hours, intracellular amastigotes): maximum percentage of parasite burden reduction reached by any concentration
Protocol: For this high-content intracellular imaging assay, H9c2 cells were seeded in 225 cm^2 T- FLASK in DMEM with 10% FBS for 4 h to allow attachment. T. cruzi trypomastigotes, collected at days 5 to 8 after infection from LLC-MK2 parasite infected cultures, were allowed to swim out for 4 h at 37°C from a centrifuged pellet (1,600 x g / 10 min). Trypomastigotes were then collected and counted in a CASY Cell Counter using the 60 μm capillary. Trypomastigotes, in supplemented DMEM, were added to H9c2 cultures in a multiplicity of infection (MOI) of 8 and incubated for 18 h. Cells were washed once with PBS before incubation of the infected H9c2 monolayer with trypsin (Life-Technologies) to detach cells from the flask. Cells were counted in a CASY Cell Counter, using the 150 μm capillary, and their density set at 5 x 10^4 cells/mL in supplemented DMEM. Infected H9c2 were dispensed into 384-well plates at 50 μL per well using a Multidrop Combi dispenser. Control wells used to determine a 100% parasitic growth (full 6th column of each plate) were left untreated, whereas not infected cells were added in the control wells used as 0% parasite growth (or 100% parasite growth inhibition; full 18th column of each plate). The four plates corresponding to each RoK assay were predispensed for the same mother plate. […] Cultures were then fixed and stained with 50 μL per well of a PBS solution containing 4% formaldehyde and 2 μM DRAQ5 DNA dye (BioStatus, UK). Then plates were read in a PerkinElmer Opera Phenix using a 20x objective, 3 fields per well. DRAQ5 signal was detected using 640 nm excitation laser and a 690/50 nm emission detection filter. Automated image analysis was performed with a script developed on Acapella High Content Imaging and Analysis Software (PerkinElmer). Two outputs were provided for each sample well: (1) number of host cells nuclei to determine drug-related cytotoxicity (aka H9c2) and (2) number of amastigotes per cell as infection level measurement (aka AM/CELL). Each output is plotted as a time course for each compound at every concentration. This assay was adapted from Alonso-Padilla et al. and Peña et al..
To identify and classify the different compounds, the number of amastigotes per cell (AM/CELL) raw data obtained in rate of kill assay are normalised using the average of C1 (infected cells) at time 4 hours as 0% effect and the average of C2 (non-infected cells) for each time as 100% effect, according to the following Eq 1: %CIDALRESPONSE=100*[Avg_C14h-RawData]/[Avg_C14h-Avg_C2] (1)
• ME (Maximum Effect) is the maximum percentage of parasite burden reduction reached by any compound concentration. Compounds that decrease the initial parasite load will show a positive value of ME, whereas compounds that allow the progression of infection will render a negative ME value. […] It is calculated for the MCC50 (t50%_MCC50) and for the maximum concentration (t50%_Cmax). […] The value of this parameter is not either interpolated or extrapolated, and it refers to the first experimental time-course point at which a 50% of effect is reached or exceeded. • tlag defines the time elapsed for one particular concentration to reduce parasite burden between two consecutive points at any moment of the time course. It is calculated for the MCC50 (tlag_MCC50) and for the maximum concentration (tlag_Cmax). The value of this parameter is not either interpolated or extrapolated, and it refers to the first experimental time-course point of a positive slope in the normalised plot (i.e. %Cidal_Response). • Cmin_Tox (Minimal CytoToxic Concentration) is the lowest compound concentration that is reducing the number of host mammalian cells below 50% of initial cell density. Cytotoxic compounds may mislead a bona fide antiparasitic action.

[2] = tested on: TcCYP51; conditions: formerly reported; cited from earlier work
[3] = tested on: T. cruzi Tulahuen trypomastigotes; experiment: T. cruzi trypomastigote assay (Cell Titer-Glo viability, ATP luminescence); format: cell-based, Trypanosoma cruzi; conditions: for Trypomastigotes pIC50 48 hours: 48 hours incubation; for Trypomastigotes pIC50 48 hours / Trypomastigotes pIC50 72 hours: pIC50 = -log10 IC50 in molar units; for Trypomastigotes pIC50 72 hours: 72 hours incubation
Summary of the method: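 Tulahuen trypomastigotes from infected LLC-MK2 culture supernatants (days 5–8) plated at 5 × 10^4 per well in DMEM/2% FBS with compound at 5 μM single-shot final or in dose response. Viability by CellTiter-Glo ATP luminescence after 10 min at room temperature, normalised to no-cell (100%) and DMSO (0%) controls.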

| SMILES | ME_24h ([1]; figure 5) | ME_48h ([1]; figure 5) | ME_72h ([1]; figure 5) | MCCE ([1]; RoK curve descriptor) [µM] | AM/CELL NORM ([1]; Time 4, figure 4 A) | AM/CELL NORM ([1]; Time 24, figure 4 A) | AM/CELL NORM ([1]; Time 48, figure 4 A) | tlag_Cmax [1] [h] | t50pct_Cmax ([1]; figure 5) | tlag_Cmax ([1]; figure 5) | t50pct_MCC50 ([1]; at MCC50, figure 5) | tlag_MCC50 ([1]; at MCC50, figure 5) | MCCE ([1]; figure 5) | ME_24h (%) [1] [%] | ME_48h (%) [1] [%] | ME_72h (%) [1] [%] | ME 24h (maximum effect at 24 hours, intracellular amastigotes) [1] [%] | CYP51 pIC50 [2] | Trypomastigotes pIC50 48 hours [3] | Trypomastigotes pIC50 72 hours [3] | further results |
| --- | --- | --- | --- | --- | --- | --- | --- | --- | --- | --- | --- | --- | --- | --- | --- | --- | --- | --- | --- | --- | --- |
| CCOc1ccc(NC(=O)C=Cc2ccc(CC)o2)cc1 [TCMDC-143160] | -214.627 | -667.694 | -988.393 | 16.7 | 1.332 | -214.627 | -667.694 | 72.0 | 72 | 72 | 72 | 72 | 16.6667 | -214.6 | -667.7 | -988.4 | 0.6973 | < 4 | 5.4 | 5 | AM/CELL NORM ([1]; Time 72, figure 4 A): -988.393; MCC50 ([1]; figure 5): 50 µM |
| COc1ccc(NS(=O)(=O)c2cc(NC(=O)c3ccc([N+](=O)[O-])s3)ccc2OC)cc1 [TCMDC-143163] | 71.4836 | 99.4358 | 93.6846 | 0.2 |  |  |  | 4.0 | 24 | 4 | 48 | 24 | 0.2058 | 71.5 | 99.4 | 93.7 | 71.4836 | 6 | 6.9 | 6.6 | MCC50 ([1]; RoK curve descriptor): 0.2 µM; AM/CELL NORM ([1]; Time 4, sheet figure 4 A): 10.6053; AM/CELL NORM ([1]; Time 24, sheet figure 4 A): 69.9764; AM/CELL NORM ([1]; Time 48, sheet figure 4 A): 96.1683; AM/CELL NORM ([1]; Time 72, sheet figure 4 A): 85.8906; t50%_Cmax [1]: 24.0 h; t50%_MCC50 ([1]; at MCC50): 48.0 h; tlag_MCC50 ([1]; at MCC50): 24.0 h; MCC50 ([1]; figure 5, in µM): 0.2058; activity in trypomastigotes assay (in words) ([3]; 48 and 72 hours): potent activity |
| NC(=O)c1ccccc1Nc1nc(NC2CCCCC2)nc2[nH]ccc12 [TCMDC-143314] | -235.508 | -846.189 | -1441.39 | 0.6 | -0.353 | -235.508 | -898.709 | 72.0 | 72 | 72 | 72 | 72 | 0.6173 | -235.5 | -846.2 | -1441.4 | 91.926 | < 4 | 5.1 | 4.4 | AM/CELL NORM ([1]; Time 72, figure 4 A): -1946.1; MCC50 ([1]; figure 5): 50 µM |
| CCCCn1nnnc1CSc1nc(C)cc(C)c1C#N [TCMDC-143315] | 53.1743 | 83.3988 | 72.5932 | 0.2 |  |  |  | 4.0 | 24 | 4 | 48 | 4 | 0.2058 | 53.2 | 83.4 | 72.6 | 53.1743 | 4.3 | 6.6 | 6.8 | MCC50 ([1]; RoK curve descriptor): 0.6 µM; AM/CELL NORM ([1]; Time 4, sheet figure 4 A): 13.5421; AM/CELL NORM ([1]; Time 24, sheet figure 4 A): 53.1743; AM/CELL NORM ([1]; Time 48, sheet figure 4 A): 83.3988; AM/CELL NORM ([1]; Time 72, sheet figure 4 A): 54.3555; t50%_Cmax [1]: 24.0 h; t50%_MCC50 ([1]; at MCC50): 48.0 h; tlag_MCC50 ([1]; at MCC50): 4.0 h; MCC50 ([1]; figure 5, in µM): 0.6173 |
